# Test results published in patent US20090022687A1, “Novel Pharmaceuticals That Use Anti-HLA Antibodies” (Chugai Seiyaku Kabushiki Kaisha, priority 2005, published 2009).
# Legend:
# [1] = tested on: myeloma cell line RPMI 8226; assay: Effects of signal transduction inhibitors on cell injury by 2D7-DB; details: 60 minutes of pretreatment, 2D7-DB 1 μg/mL
# Experimental: This time, the present inventors further examined the antitumor mechanism of 2D7-DB. First, 60 minutes of pretreatment was performed using various signal transduction inhibitors, and their effects on cell injury of the myeloma cell line RPMI 8226 after 2D7-DB (1 μg/mL) addition were examined (FIG. 6A).
# myeloma cell line ARH-77 = assay: Actin staining, localization of 2D7-DB and actin; assay type: cell-based, human; details: ARH-77, 30 minutes of pretreatment with inhibitor 0,1 μM
# Experimental: Furthermore, actin staining of the cells was performed to examine the localization of 2D7-DB (green) and actin (red) (FIG. 6B). […] On the other hand, actin aggregation due to 2D7-DB was not observed in the bone marrow stromal cell line KM102 expressing HLA-A. Thus, actin aggregation effect and cytotoxic activity by 2D7-DB were considered specific to myeloma cells and lymphoid cells, and while 2D7-DB is useful for myeloma and autoimmune diseases, it was considered to have little effect on normal tissues.
# [2] = tested on: HLA-A expression in IM-9 cells; assay: Effects of IFNs on HLA-A expression (flow cytometry using 2D7); assay type: cell-based, human; details: IFN 100 U/mL for 48 hours
# Experimental: IM-9 cells were treated with IFN-α (100 U/mL) or IFN-γ (100 U/mL) for 48 hours. Cell surface expression of HLA-A was analyzed by flow cytometry using 2D7. The staining properties of IFN-treated cells are shown by tick lines, and those of untreated cells are shown by solid lines. Negative control staining properties are shown by dotted lines. (B) A graph indicating the enhancement of 2D7-DB-mediated cytotoxicity by IFN is shown. IM-9 cells were treated with IFN-α (100 U/mL) or IFN-γ (100 U/mL) for 48 hours, and then cultured with 2D7-DB (0.1 or 1 μg/mL) for 24 hours. Cell viabilities were determined by WST-8 assays.
# Since cell surface expression of HLA class I is enhanced by IFN stimulation, effects of IFNs on HLA-A expression and 2D7-DB-mediated cytotoxicity were examined using IM-9 cells. After treating IM-9 cells with IFN-α (100 U/mL, OIF 2,500,000 IU, Otsuka Pharmaceutical) or IFN-γ (100 U/mL, Ogamma 100, Otsuka Pharmaceutical) for 48 hours, flow cytometry was performed. […]
# Cell surface expression analysis of HLA class I by flow cytometry was performed as follows using FITC-labeled 2D7 mAb or FITC-labeled anti-HLA-ABC common region mAb (Chemicon, San Diego, Calif.). […] Next, the cells were washed twice with PBS, and analyzed using an EPICS XL flow cytometer (Beckman Coulter, Japan). […] HLA class I expression levels were evaluated as GeoMFI using the CellQuest software (BID Biosciences).
molecule,measurement,setting,value
COC[C@H]1OC(=O)c2coc3c2[C@@]1(C)C1=C(C3=O)[C@@H]2CCC(=O)[C@@]2(C)C[C@H]1OC(C)=O [Wortmannin],effect on cytotoxicity of 2D7-DB,[1]; inhibitor 10 μM,did not show effects
C=C1[C@@H](C)[C@H]2[C@H](Cc3ccccc3)NC(=O)[C@]23[C@H](OC(C)=O)/C=C/[C@@](C)(O)C(=O)[C@@H](C)C/C=C/[C@H]3[C@@H]1O [cytochalasin D],effect on cytotoxicity of 2D7-DB,[1]; inhibitor 1 μM,almost completely suppressed
C/C1=C/C(=O)O[C@@H]2C[C@@H](CC[C@H](C)/C=C\C=C\CC1)O[C@@](O)([C@@H]1CSC(=O)N1)C2 [latrunculin A],actin aggregation after 2D7-DB addition,myeloma cell line ARH-77,aggregation was not observed
same,effect on cytotoxicity of 2D7-DB,[1]; inhibitor 0.1 μM,almost completely suppressed
"IFN-α: interferon α, OIF 2,500,000 IU, Otsuka Pharmaceutical; amino acid sequence SEQ ID NO: 1 (protein, listed as Homo sapiens) MASPFALLMVLVVLSCKSSCSLGCDLPETHSLDNRRTLMLLAQMSRISPSSCLMDRHDFGFPQEEFDGNQFQKAPAISVLHELIQQIFNLFTTKDSSAAWDEDLLDKFCTELYQQLNDLEACVMQEERVGETPLMNADSILAVKKYFRRITLYLTEKKYSPCAWEVVRAEIMRSLSLSTNLQERLRRKE",HLA-A expression,[2],up-regulated
"IFN-γ: interferon γ, Ogamma 100, Otsuka Pharmaceutical; amino acid sequence SEQ ID NO: 3 (protein, listed as Homo sapiens) MKYTSYILAFQLCIVLGSLGCYCQDPYVKEAENLKKYFNAGHSDVADNGTLFLGILKNWKEESDRKIMQSQIVSFYFKLFKNFKDDQSIQKSVETIKEDMNVKFFNSNKKKRDDFEKLTNYSVTDLNVQRKAIHELIQVMAELSPAAKTGKRKRSQMLFRGRRASQ",HLA-A expression,[2],up-regulated
